From the supplement of paper PMC11451515

Key:
Details in all cases: 48 h
[1] = test system: NOMO1; assay: AUC of viability dose-response curve (% viability x log10 dose units); higher = less sensitive
Method in brief: (§1)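 Leukemia cells adapted to each medium (500 or 1000 cells/well, 1536-well plates) were exposed to library compounds in DMSO for 48 h at 37°C at 11 threefold doses, 47 μM to 0.79 nM. Luminescence by CellTiter-Glo One was normalised per plate to DMSO and cell-free wells, then fitted with a four-parameter log-logistic curve on log10 dose. Curves above full viability were scaled and quality-control failures removed before area under the curve was integrated by trapezoidal rule.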

[2] = test system: SEM cells; assay: cell viability relative to DMSO control; higher = less cytotoxic
Method in brief: (§2)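 In 1536-well plates, 5 μl of leukemia cells were seeded per well: 500 cells/well for NOMO1 or SEM and 1000 cells/well for P12-Ichikawa. Each line had first been adapted for at least four passages in each medium. Library compounds in DMSO were pin-dosed at 11 threefold concentrations between 47 μM and 0.79 nM, and CellTiter-Glo One luminescence was read after 48 h at 37°C. Viability is a per-plate percentage relative to DMSO wells, with cell-free wells as background.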

[3] = test system: NOMO1; assay: as above
Method in brief: as §2

[4] = test system: P12-Ichikawa; assay: as above
Method in brief: as §2

[5] = test system: SEM cells; assay: AUC of viability dose-response curve (% viability x log10 dose units); higher = less sensitive
Method in brief: as §1

[6] = test system: P12-Ichikawa; assay: as above
Method in brief: as §1

CC(C)OC(=O)OCOP(=O)(CO[C@H](C)Cn1cnc2c(N)ncnc21)OCOC(=O)OC(C)C.O=C(O)C=CC(=O)O
[1]
Details	AUC of viability dose-response curve
HPLM + 10% dialyzed FBS	446
RPMI 5 mM glucose + 10% FBS	456
RPMI 5 mM glucose + 10% dialyzed FBS	448

cell viability [%]
Details	[2]	[3]	[4]
HPLM + 10% dialyzed FBS, 0.000781 µM	85	98.7	110
HPLM + 10% dialyzed FBS, 0.00234 µM	99.6	120	120
HPLM + 10% dialyzed FBS, 0.00702 µM	28.3	120	73.1
HPLM + 10% dialyzed FBS, 0.0211 µM	121	105	125
HPLM + 10% dialyzed FBS, 0.0632 µM	105	133	127
HPLM + 10% dialyzed FBS, 0.19 µM	114	129	125
HPLM + 10% dialyzed FBS, 0.569 µM	114	126	125
HPLM + 10% dialyzed FBS, 1.71 µM	120	123	128
HPLM + 10% dialyzed FBS, 5.12 µM	98.2	104	129
HPLM + 10% dialyzed FBS, 15.4 µM	105	89.6	126
HPLM + 10% dialyzed FBS, 46.1 µM	35.1	53.1	106
RPMI 5 mM glucose + 10% FBS, 0.000781 µM	108	95.8	105
RPMI 5 mM glucose + 10% FBS, 0.00234 µM	113	121	132
RPMI 5 mM glucose + 10% FBS, 0.00702 µM	11.7	125	70.9
RPMI 5 mM glucose + 10% FBS, 0.0211 µM	119	116	122
RPMI 5 mM glucose + 10% FBS, 0.0632 µM	119	115	124
RPMI 5 mM glucose + 10% FBS, 0.19 µM	124	128	122
RPMI 5 mM glucose + 10% FBS, 0.569 µM	115	109	135
RPMI 5 mM glucose + 10% FBS, 1.71 µM	115	118	129
RPMI 5 mM glucose + 10% FBS, 5.12 µM	109	115	129
RPMI 5 mM glucose + 10% FBS, 15.4 µM	94.8	103	115
RPMI 5 mM glucose + 10% FBS, 46.1 µM	76.1	38.6	4.8
RPMI 5 mM glucose + 10% dialyzed FBS, 0.000781 µM	77.3	117	97.6
RPMI 5 mM glucose + 10% dialyzed FBS, 0.00234 µM	107	117	109
RPMI 5 mM glucose + 10% dialyzed FBS, 0.00702 µM	23.8	112	85.9
RPMI 5 mM glucose + 10% dialyzed FBS, 0.0211 µM	102	117	115
RPMI 5 mM glucose + 10% dialyzed FBS, 0.0632 µM	113	124	122
RPMI 5 mM glucose + 10% dialyzed FBS, 0.19 µM	104	122	124
RPMI 5 mM glucose + 10% dialyzed FBS, 0.569 µM	97.9	128	124
RPMI 5 mM glucose + 10% dialyzed FBS, 1.71 µM	124	124	124
RPMI 5 mM glucose + 10% dialyzed FBS, 5.12 µM	104	114	128
RPMI 5 mM glucose + 10% dialyzed FBS, 15.4 µM	102	102	121
RPMI 5 mM glucose + 10% dialyzed FBS, 46.1 µM	32.2	15.1	95.2

NC1(c2ccc(-c3nc4ccn5c(=O)[nH]nc5c4cc3-c3ccccc3)cc2)CCC1
AUC of viability dose-response curve
Details	[1]	[5]	[6]
HPLM + 10% dialyzed FBS	392	322	396
RPMI 5 mM glucose + 10% FBS	451	318	366
RPMI 5 mM glucose + 10% dialyzed FBS	423	298	361

[2], HPLM + 10% dialyzed FBS
Details	cell viability [%]
0.000781 µM	123
0.00234 µM	138
0.00702 µM	125
0.0211 µM	74.7
0.0632 µM	125
0.19 µM	104
0.569 µM	78.3
1.71 µM	65.1
5.12 µM	43.8
15.4 µM	37.9
46.1 µM	14.4
